In PMC7946776 (Journal of immunology (Baltimore, Md. : 1950), 2021):

Molecular target: mouse Asah2 (Mus musculus, UniProt Q9JHE3)
Test: fluorogenic ceramidase activity assay
Assay type: biochemical

Sequence of mouse Asah2 (Q9JHE3 whole entry): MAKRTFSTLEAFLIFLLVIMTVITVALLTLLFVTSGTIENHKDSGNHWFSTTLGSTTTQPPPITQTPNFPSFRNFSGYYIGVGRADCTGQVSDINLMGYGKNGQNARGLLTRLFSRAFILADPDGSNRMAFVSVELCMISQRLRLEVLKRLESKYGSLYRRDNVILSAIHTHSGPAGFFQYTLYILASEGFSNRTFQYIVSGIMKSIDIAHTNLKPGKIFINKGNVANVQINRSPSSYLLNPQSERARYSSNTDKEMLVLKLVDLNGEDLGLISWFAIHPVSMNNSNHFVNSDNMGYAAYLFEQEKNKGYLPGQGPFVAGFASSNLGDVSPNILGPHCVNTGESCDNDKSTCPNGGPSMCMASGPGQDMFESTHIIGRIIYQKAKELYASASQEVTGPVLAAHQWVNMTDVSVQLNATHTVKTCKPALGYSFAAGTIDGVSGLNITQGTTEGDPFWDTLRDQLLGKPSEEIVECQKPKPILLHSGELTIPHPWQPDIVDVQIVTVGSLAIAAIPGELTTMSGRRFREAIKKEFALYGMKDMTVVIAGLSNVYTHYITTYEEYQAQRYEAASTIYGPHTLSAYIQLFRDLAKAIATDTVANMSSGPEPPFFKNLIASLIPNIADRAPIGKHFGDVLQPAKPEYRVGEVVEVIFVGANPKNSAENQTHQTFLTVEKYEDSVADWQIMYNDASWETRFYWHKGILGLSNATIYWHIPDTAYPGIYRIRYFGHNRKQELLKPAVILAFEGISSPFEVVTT

IC50: 30.2 µM
SMILES: O=c1nc(Nc2cccc(Cl)c2)oc2cc(Cl)oc(=O)c12 [NC06, 7-chloro-2-(3-chloroanilino)pyrano[3,4-e][1,3]oxazine-4,5-dione]
